Assay results as given in patent US12077503B2, “Substituted cyclic amides and their use as herbicides” (FMC CORPORATION, priority 2015, dated 2024).

What was measured:
Format in all cases: in vivo
Kochia (Kochia scoparia) [1] = test: Test A preemergence; details: Bassia scoparia, pre-emergence, 240 h, 0 to 100 scale where 0 is no effect and 100 is complete control, read-out: Kochia plant response rating; for pest or weed control at 31 g/ha: 31 g ai/ha, Preemergence
How it was run: (§1)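 Preemergence soil spray on seeded pots or post-emergence spray on 1–2 leaf plants, in loam–sand blend. Greenhouse ~10 d. Visual rating 0–100 against untreated plants.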

[2] = system: barnyardgrass (Echinochloa crus-galli); test: Test A preemergence; details: Echinochloa crus-galli, pre-emergence, 240 h, 0 to 100 scale where 0 is no effect and 100 is complete control, read-out: Barnyardgrass plant response rating; for pest or weed control at 31 g/ha: 31 g ai/ha, Preemergence; for pest or weed control at 125 g/ha: 125 g ai/ha, preemergence, approx. 10 d
How it was run: as §1

[3] = system: giant foxtail (Setaria faberii); test: Test A preemergence; details: Setaria faberi, pre-emergence, 240 h, 0 to 100 scale where 0 is no effect and 100 is complete control, read-out: Foxtail, Giant plant response rating; for pest or weed control at 31 g/ha: 31 g ai/ha, Preemergence; for pest or weed control at 125 g/ha: 125 g ai/ha, preemergence, approx. 10 d
How it was run: as §1

[4] = system: pigweed (Amaranthus retroflexus); test: Test A preemergence; details: Amaranthus retroflexus, pre-emergence, 240 h, 0 to 100 scale where 0 is no effect and 100 is complete control, read-out: Pigweed plant response rating; for pest or weed control at 31 g/ha: 31 g ai/ha, Preemergence; for pest or weed control at 125 g/ha: 125 g ai/ha, preemergence, approx. 10 d
[5] = system: ragweed (common ragweed, Ambrosia elatior); test: Test A preemergence; details: Ambrosia artemisiifolia, pre-emergence, 240 h, 0 to 100 scale where 0 is no effect and 100 is complete control, read-out: Ragweed plant response rating; for pest or weed control at 31 g/ha: 31 g ai/ha, Preemergence; for pest or weed control at 125 g/ha: 125 g ai/ha, preemergence, approx. 10 d
How it was run: as §1

[6] = system: ryegrass, Italian (Italian ryegrass, Lolium multiflorum); test: Test A preemergence; details: Lolium multiflorum, pre-emergence, 240 h, 0 to 100 scale where 0 is no effect and 100 is complete control, read-out: Ryegrass, Italian plant response rating; for pest or weed control at 31 g/ha: 31 g ai/ha, Preemergence; for pest or weed control at 125 g/ha: 125 g ai/ha, preemergence, approx. 10 d
How it was run: as §1

[7] = system: Galium (catchweed bedstraw, Galium aparine); test: Test A postemergence; details: Galium, post-emergence, 240 h; for pest or weed control at 125 g/ha: 125 g ai/ha, postemergence, visual injury on 0 to 100 scale (0 no effect, 100 complete control), approx. 10 d, read-out: Galium plant response rating; for pest or weed control at 31 g/ha: Postemergence, 31 g ai/ha, visual injury after approx. 10 d, 0 to 100 scale, 0 no effect, 100 complete control, read-out: Plant response rating, Galium
How it was run: as §1

Kochia (Kochia scoparia) [8] = test: Test A postemergence; details: Bassia scoparia, post-emergence, 240 h; for pest or weed control at 31 g/ha: Postemergence, 31 g ai/ha, visual injury after approx. 10 d, 0 to 100 scale, 0 no effect, 100 complete control, read-out: Plant response rating, Kochia
How it was run: as §1

[9] = system: barnyardgrass (Echinochloa crus-galli); test: Test A postemergence; details: Echinochloa crus-galli, post-emergence, 240 h; for pest or weed control at 125 g/ha: 125 g ai/ha, postemergence, visual injury on 0 to 100 scale (0 no effect, 100 complete control), approx. 10 d, read-out: Barnyardgrass plant response rating; for pest or weed control at 31 g/ha: Postemergence, 31 g ai/ha, visual injury after approx. 10 d, 0 to 100 scale, 0 no effect, 100 complete control, read-out: Plant response rating, Barnyardgrass
How it was run: as §1

[10] = system: blackgrass (Alopecurus myosuroides); test: Test A postemergence; details: Alopecurus myosuroides, post-emergence, 240 h; for pest or weed control at 125 g/ha: 125 g ai/ha, postemergence, visual injury on 0 to 100 scale (0 no effect, 100 complete control), approx. 10 d, read-out: Blackgrass plant response rating; for pest or weed control at 31 g/ha: Postemergence, 31 g ai/ha, visual injury after approx. 10 d, 0 to 100 scale, 0 no effect, 100 complete control, read-out: Plant response rating, Blackgrass
How it was run: as §1

corn (Zea mays) = test: Test A postemergence; details: Zea mays, post-emergence, 240 h; for plant injury at 125 g/ha: 125 g ai/ha, postemergence, visual injury on 0 to 100 scale (0 no effect, 100 complete control), approx. 10 d, read-out: Corn plant response rating; for Corn plant response rating (crop injury, 0 = no effect, 100 = complete kill) at 31 g/ha: Postemergence, 31 g ai/ha, visual injury after approx. 10 d, 0 to 100 scale, 100 complete control
How it was run: as §1

[11] = system: giant foxtail (Setaria faberii); test: Test A postemergence; details: Setaria faberi, post-emergence, 240 h; for pest or weed control at 125 g/ha: 125 g ai/ha, postemergence, visual injury on 0 to 100 scale (0 no effect, 100 complete control), approx. 10 d, read-out: Foxtail, Giant plant response rating; for pest or weed control at 31 g/ha: Postemergence, 31 g ai/ha, visual injury after approx. 10 d, 0 to 100 scale, 0 no effect, 100 complete control, read-out: Plant response rating, Foxtail, Giant
How it was run: as §1

[12] = system: pigweed (Amaranthus retroflexus); test: Test A postemergence; details: Amaranthus retroflexus, post-emergence, 240 h; for pest or weed control at 125 g/ha: 125 g ai/ha, postemergence, visual injury on 0 to 100 scale (0 no effect, 100 complete control), approx. 10 d, read-out: Pigweed plant response rating; for pest or weed control at 31 g/ha: Postemergence, 31 g ai/ha, visual injury after approx. 10 d, 0 to 100 scale, 0 no effect, 100 complete control, read-out: Plant response rating, Pigweed
How it was run: as §1

[13] = system: ragweed (common ragweed, Ambrosia elatior); test: Test A postemergence; details: Ambrosia artemisiifolia, post-emergence, 240 h; for pest or weed control at 125 g/ha: 125 g ai/ha, postemergence, visual injury on 0 to 100 scale (0 no effect, 100 complete control), approx. 10 d, read-out: Ragweed plant response rating; for pest or weed control at 31 g/ha: Postemergence, 31 g ai/ha, visual injury after approx. 10 d, 0 to 100 scale, 0 no effect, 100 complete control, read-out: Plant response rating, Ragweed
How it was run: as §1

[14] = system: ryegrass, Italian (Italian ryegrass, Lolium multiflorum); test: Test A postemergence; details: Lolium multiflorum, post-emergence, 240 h; for pest or weed control at 125 g/ha: 125 g ai/ha, postemergence, visual injury on 0 to 100 scale (0 no effect, 100 complete control), approx. 10 d, read-out: Ryegrass, Italian plant response rating; for pest or weed control at 31 g/ha: Postemergence, 31 g ai/ha, visual injury after approx. 10 d, 0 to 100 scale, 0 no effect, 100 complete control, read-out: Plant response rating, Ryegrass, Italian
How it was run: as §1

[15] = system: wheat (Triticum aestivum); test: Test A postemergence; details: Triticum aestivum, post-emergence, 240 h; for plant injury at 125 g/ha: 125 g ai/ha, postemergence, visual injury on 0 to 100 scale (0 no effect, 100 complete control), approx. 10 d, read-out: Wheat plant response rating; for plant injury at 31 g/ha: Postemergence, 31 g ai/ha, visual injury after approx. 10 d, 0 to 100 scale, 0 no effect, 100 complete control, read-out: Plant response rating, Wheat
How it was run: as §1

[16] = system: barnyardgrass (Echinochloa crus-galli); test: Test B flooded paddy test; details: Echinochloa crus-galli, 250 g ai/ha, Flood; 0 to 100 scale where 0 is no effect and 100 is complete control; read-out: Barnyardgrass plant response rating
How it was run: (§2)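 Compound goes directly into floodwater once pots are flooded 3 cm above soil, targeting plants at two leaves; the water depth is then held for the test duration. Plants sit 13–15 d in a greenhouse and are rated visually, 100 denoting complete control.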

[17] = system: ducksalad (Heteranthera limosa); test: Test B flooded paddy test; details: Heteranthera limosa, 250 g ai/ha, Flood; 0 to 100 scale where 0 is no effect and 100 is complete control; read-out: Ducksalad plant response rating
How it was run: as §2

rice (Oryra sativa) = test: Test B flooded paddy test; details: Oryza sativa, 250 g ai/ha, Flood; 0 to 100 scale where 0 is no effect and 100 is complete control; read-out: Rice plant response rating
How it was run: as §2

[18] = system: sedge, umbrella (small-flower umbrella sedge, Cyperus difformis); test: Test B flooded paddy test; details: Cyperus difformis, 250 g ai/ha, Flood; 0 to 100 scale where 0 is no effect and 100 is complete control; read-out: Sedge, Umbrella plant response rating
How it was run: as §2

| Structure (SMILES) | pest or weed control at 31 g/ha (Kochia (Kochia scoparia) [1]) [%] | pest or weed control at 31 g/ha [2] [%] | pest or weed control at 125 g/ha [2] [%] | pest or weed control at 31 g/ha [3] [%] | pest or weed control at 125 g/ha [3] [%] | pest or weed control at 31 g/ha [4] [%] | pest or weed control at 125 g/ha [4] [%] | pest or weed control at 31 g/ha [5] [%] | pest or weed control at 125 g/ha [5] [%] | pest or weed control at 31 g/ha [6] [%] | pest or weed control at 125 g/ha [6] [%] | pest or weed control at 125 g/ha [7] [%] | pest or weed control at 31 g/ha [7] [%] | pest or weed control at 31 g/ha (Kochia (Kochia scoparia) [8]) [%] | pest or weed control at 125 g/ha [9] [%] | pest or weed control at 31 g/ha [9] [%] | pest or weed control at 125 g/ha [10] [%] | pest or weed control at 31 g/ha [10] [%] | plant injury at 125 g/ha (corn (Zea mays)) [%] | Corn plant response rating (crop injury, 0 = no effect, 100 = complete kill) at 31 g/ha (corn (Zea mays)) [%] | further results |
| --- | --- | --- | --- | --- | --- | --- | --- | --- | --- | --- | --- | --- | --- | --- | --- | --- | --- | --- | --- | --- | --- |
| Cc1cc([C@H]2CN(C)C(=O)[C@@H]2C(=O)Nc2ccccc2C(F)(F)F)ccc1Br [Compound 1103] | 0 | 20 | 70 | 70 | 90 | 0 | 0 | 0 | 20 | 0 | 0 | 50 | 30 | 0 | 70 | 40 | 30 | 20 | 0 | 0 | pest or weed control at 125 g/ha [11]: 80%; pest or weed control at 31 g/ha [11]: 50%; pest or weed control at 125 g/ha [12]: 0%; pest or weed control at 31 g/ha [12]: 0%; pest or weed control at 125 g/ha [13]: 30%; pest or weed control at 31 g/ha [13]: 0%; pest or weed control at 125 g/ha [14]: 20%; pest or weed control at 31 g/ha [14]: 0%; plant injury at 125 g/ha [15]: 20%; plant injury at 31 g/ha [15]: 0%; pest or weed control at 250 g/ha [16]: 75%; pest or weed control at 250 g/ha [17]: 90%; pest or weed control at 250 g/ha (rice (Oryra sativa)): 25%; pest or weed control at 250 g/ha [18]: 0% |
| O=C1NC[C@H](c2ccc(C(F)(F)F)cn2)[C@H]1C(=O)Nc1cccc(F)c1F [Compound 1104] | 0 | 0 | 50 | 0 | 70 | 0 | 0 | 0 | 0 | 0 | 0 | 0 | 0 | 0 | 30 | 0 | 0 | 0 | 0 | 0 | pest or weed control at 125 g/ha (Kochia (Kochia scoparia) [1]; 125 g ai/ha, preemergence, approx. 10 d): 0%; pest or weed control at 125 g/ha (Kochia (Kochia scoparia) [8]; 125 g ai/ha, postemergence, visual injury on 0 to 100 scale (0 no effect, 100 complete control), approx. 10 d, read-out: Kochia plant response rating): 0%; pest or weed control at 125 g/ha [11]: 0%; pest or weed control at 31 g/ha [11]: 0%; pest or weed control at 125 g/ha [12]: 0%; pest or weed control at 31 g/ha [12]: 0%; pest or weed control at 125 g/ha [13]: 0%; pest or weed control at 31 g/ha [13]: 0%; pest or weed control at 125 g/ha [14]: 0%; pest or weed control at 31 g/ha [14]: 0%; plant injury at 125 g/ha [15]: 0%; plant injury at 31 g/ha [15]: 0%; pest or weed control at 250 g/ha [16]: 40%; pest or weed control at 250 g/ha [17]: 100%; pest or weed control at 250 g/ha (rice (Oryra sativa)): 20%; pest or weed control at 250 g/ha [18]: 0% |
